Test results taken from patent publication US20260284189A1, “TREATMENT OF NON-SMALL CELL LUNG CANCER” (ASTRAZENECA AB, priority 2023, published 2026).

Key:
[1] = test system: PD-L1-mediated suppression of human T-cell activation; settings: in vitro; cited from earlier work
[2] = test system: resectable non-small cell lung cancer (R-NSCLC); assay: AEGEAN phase III: event-free survival (EFS) by blinded independent central review; assay type: in vivo, human
From the text: As used herein, the terms “event-free survival” or “EFS” refer to the time from randomization to the first of the following: a) local or distant recurrence as determined by BICR using RECIST 1.1 assessments; b) death due to any cause (event date is the date of death); c) PD that precludes surgery (event date is the date of this determination) or PD discovered and reported by the Investigator upon attempting surgery that prevents completion of surgery (event date is the date of the first attempt at surgery). Event-free survival can be analyzed using the log-rank test based on blinded independent central review (BICR) assessment using RECIST v1.1 and pathology review stratified by disease stage (Stage II versus Stage III) and by PD-L1 expression status (<1% versus >1%) on the mITT. The p-value can be obtained from the stratified log-rank test using the Efron (Hertz-Picciotto and Rockhill “Validity and efficiency of approximation methods for tied survival times in Cox regression.” Biometrics 1997; 53(3):1151-6.) approach for handling ties.
The AEGEAN (NCT03800134) study described herein is a phase III, double-blind, placebo-controlled, multi-center international study of assessed perioperative (i.e. neoadjuvant and adjuvant) durvalumab plus neoadjuvant chemotherapy for the treatment of patients with resectable stage II and stage III non-small cell lung cancer (R-NSCLC).
The study enrolled approximately 1300 patients and randomized approximately 800 eligible patients. Eligible patients had newly diagnosed, previously untreated, histologically or cytologically documented, resectable NSCLC (stage IIA to select [N2] stage IIIB according to the American Joint Committee on Cancer [AJCC] Cancer Staging Manual, version 8). Patients were randomized in a 1:1 ratio to receive either durvalumab plus a platinum-based chemotherapy before surgery followed by durvalumab post-surgery (Arm 1; a platinum-based chemotherapy plus durvalumab intravenously every three weeks (four cycles) before surgery, followed by durvalumab intravenously every four weeks (12 cycles)) or placebo plus a platinum-based chemotherapy before surgery followed by placebo post-surgery (Arm 2; a platinum-based chemotherapy plus placebo intravenously every three weeks (four cycles) before surgery, followed by placebo intravenously every four weeks (12 cycles)). Patients were also stratified by disease stage (Stage II versus Stage III) and by PD-L1 expression status (<1% versus ≥1%).
The two primary efficacy endpoints in this study were event-free survival (EFS; per blinded independent central review [BICR]) and pathological complete response (pCR; evaluated centrally). […]
Comparisons between the study arms were analyzed using stratified log-rank tests. […]

[3] = mITT subgroup, durvalumab versus placebo, unstratified Cox model

## Durvalumab: antibody that selectively binds PD-L1 and blocks binding of PD-L1 to PD-1 and CD80; arm given with platinum-based chemotherapy before surgery
[1]
  PD-L1-mediated suppression of human T-cell activation: can relieve PD-L1-mediated suppression of human T-cell activation in vitro
[2]; mITT N=740, BICR, first interim analysis, 31.9% maturity, data cut-off Nov. 10, 2022
  EFS stratified hazard ratio, durvalumab arm versus placebo arm: 0.68
[2]; [3]
  EFS HR, planned neoadjuvant platinum agent carboplatin: 0.73
  EFS HR, planned neoadjuvant platinum agent cisplatin: 0.59
[2]; mITT, BICR, first interim analysis, 31.9% maturity
  median EFS: not reached
